# Assay results as given in ChEMBL document CHEMBL1156023, “Grassystatins A-C from marine cyanobacteria, potent cathepsin E inhibitors that reduce antigen presentation” (J Med Chem, 2009).
# Square brackets hold non-standard residues; d marks the D form. Peptide text beside a SMILES is read from it. * marks the point of attachment. Sta = CC(C)C[C@H](N)[C@@H](O)CC(=O)O; NMe2Val = CC(C)[C@@H](C(=O)*)N(C)C; dNMeF = CN[C@H](Cc1ccccc1)C(=O)O; dHiv = CC(C)[C@@H](O)C(=O)O; Hiv = CC(C)[C@H](O)C(=O)O
# Key:
# [1] = target: Plasminogen (Homo sapiens) (UniProt P00747); assay: Inhibition of human plasmin assessed as residual activity at 10 uM after 10 to 15 mins by fluorescence assay relative to control
# Stromelysin-3 = Stromelysin-3 (Homo sapiens, UniProt P24347); assay: Inhibition of MMP11 catalytic domain after 10 to 15 mins by fluorescence assay
# [2] = target: Serine protease 1 (Bos taurus) (UniProt P00760); assay: Inhibition of bovine pancreatic trypsin assessed as residual activity at 10 uM after 10 to 15 mins by fluorescence assay relative to control
# [3] = target: Coagulation factor X (Homo sapiens) (UniProt P00742); assay: Inhibition of factor 10a assessed as residual activity at 10 uM after 10 to 15 mins by fluorescence assay relative to control
# Interstitial collagenase = Interstitial collagenase (Homo sapiens, UniProt P03956); assay: Inhibition of MMP1 after 10 to 15 mins by fluorescence assay
# Interstitial collagenase, sequence (P03956 whole entry): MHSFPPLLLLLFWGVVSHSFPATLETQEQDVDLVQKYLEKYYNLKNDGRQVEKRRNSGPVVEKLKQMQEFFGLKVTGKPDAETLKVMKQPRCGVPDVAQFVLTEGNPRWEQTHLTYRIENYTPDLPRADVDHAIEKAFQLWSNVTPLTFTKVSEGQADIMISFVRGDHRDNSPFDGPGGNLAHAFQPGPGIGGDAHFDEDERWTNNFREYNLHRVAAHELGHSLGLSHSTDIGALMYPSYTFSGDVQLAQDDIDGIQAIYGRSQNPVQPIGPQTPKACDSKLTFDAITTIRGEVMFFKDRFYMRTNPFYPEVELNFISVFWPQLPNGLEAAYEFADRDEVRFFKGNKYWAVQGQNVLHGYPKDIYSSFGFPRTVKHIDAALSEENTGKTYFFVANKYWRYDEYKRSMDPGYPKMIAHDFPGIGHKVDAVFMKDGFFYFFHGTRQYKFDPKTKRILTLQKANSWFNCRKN
# Caspase-2 = Caspase-2 (Homo sapiens, UniProt P42575); assay: Inhibition of caspase 2 after 10 to 15 mins by fluorescence assay
# Caspase-2, sequence (P42575 170-325 limits assumed): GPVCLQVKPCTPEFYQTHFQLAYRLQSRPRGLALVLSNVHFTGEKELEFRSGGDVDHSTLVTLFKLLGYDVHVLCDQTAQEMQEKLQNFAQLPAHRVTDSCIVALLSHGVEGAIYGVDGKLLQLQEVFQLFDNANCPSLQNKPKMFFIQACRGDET
# Caspase-2, sequence (P42575 334-452 limits assumed): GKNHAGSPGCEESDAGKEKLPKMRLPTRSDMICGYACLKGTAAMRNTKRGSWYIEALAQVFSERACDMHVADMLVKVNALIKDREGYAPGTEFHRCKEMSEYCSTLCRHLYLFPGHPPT
# Caspase-4 [4] = target: Caspase-4 (Homo sapiens, UniProt P49662); assay: Inhibition of caspase 4 after 10 to 15 mins by fluorescence assay
# [5] = target: Macrophage metalloelastase (Homo sapiens, UniProt P39900); assay: Inhibition of MMP12 catalytic domain after 10 to 15 mins by fluorescence assay
# Macrophage metalloelastase, sequence (P39900 whole entry, the tested form may be a part): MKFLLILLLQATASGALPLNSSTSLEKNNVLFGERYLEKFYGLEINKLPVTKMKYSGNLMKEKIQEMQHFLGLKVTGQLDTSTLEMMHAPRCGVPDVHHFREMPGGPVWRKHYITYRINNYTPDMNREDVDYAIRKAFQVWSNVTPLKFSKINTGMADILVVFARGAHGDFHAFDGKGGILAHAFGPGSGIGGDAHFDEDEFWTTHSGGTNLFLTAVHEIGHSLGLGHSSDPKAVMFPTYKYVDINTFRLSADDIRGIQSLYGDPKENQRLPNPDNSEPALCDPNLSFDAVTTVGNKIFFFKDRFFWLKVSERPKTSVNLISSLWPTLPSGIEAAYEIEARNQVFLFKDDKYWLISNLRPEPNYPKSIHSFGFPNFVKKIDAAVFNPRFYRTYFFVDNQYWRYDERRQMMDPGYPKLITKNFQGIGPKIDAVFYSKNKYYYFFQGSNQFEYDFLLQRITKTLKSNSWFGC
# Stromelysin-2 = Stromelysin-2 (Homo sapiens, UniProt P09238); assay: Inhibition of MMP10 assessed as residual activity at 10 uM after 10 to 15 mins by fluorescence assay relative to control
# Caspase-4 [6] = target: Caspase-4 (Mus musculus, UniProt P70343); assay: Inhibition of mouse caspase 11 after 10 to 15 mins by fluorescence assay
# Caspase-4 (Mus musculus, UniProt P70343), sequence (P70343 81-266 limits assumed): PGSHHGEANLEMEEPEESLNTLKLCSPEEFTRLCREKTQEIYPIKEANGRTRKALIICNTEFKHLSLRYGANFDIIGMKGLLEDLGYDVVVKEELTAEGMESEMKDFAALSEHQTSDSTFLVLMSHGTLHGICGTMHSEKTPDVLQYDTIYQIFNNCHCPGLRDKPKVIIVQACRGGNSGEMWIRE
# Caspase-4 (Mus musculus, UniProt P70343), sequence (P70343 286-373 limits assumed): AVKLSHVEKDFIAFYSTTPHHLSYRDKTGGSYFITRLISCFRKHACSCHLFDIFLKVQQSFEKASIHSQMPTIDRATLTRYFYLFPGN
# Caspase-2 (Homo sapiens) = Caspase-2 (Homo sapiens) (UniProt P42575); assay: Inhibition of caspase 2 assessed as residual activity at 10 uM after 10 to 15 mins by fluorescence assay relative to control
# Caspase-2 (Homo sapiens), sequence (P42575 170-325 limits assumed): as the sequence (P42575 170-325 limits assumed) above
# Caspase-2 (Homo sapiens), sequence (P42575 334-452 limits assumed): as the sequence (P42575 334-452 limits assumed) above
# Caspase-4 (Mus musculus) = Caspase-4 (Mus musculus) (UniProt P70343); assay: Inhibition of mouse caspase 11 assessed as residual activity at 10 uM after 10 to 15 mins by fluorescence assay relative to control
# Caspase-4 (Mus musculus), sequence (P70343 81-266 limits assumed): as the sequence (P70343 81-266 limits assumed) above
# Caspase-4 (Mus musculus), sequence (P70343 286-373 limits assumed): as the sequence (P70343 286-373 limits assumed) above
# [7] = target: Vitamin K-dependent protein C (Homo sapiens, UniProt P04070); assay: Inhibition of activated protein C assessed as residual activity at 10 uM after 10 to 15 mins by fluorescence assay in presence of 50% […] relative to control
# [8] = target: Dipeptidyl peptidase 9 (Homo sapiens) (UniProt Q86TI2); assay: Inhibition of DPP9 assessed as residual activity at 10 uM after 10 to 15 mins by fluorescence assay relative to control
# Dipeptidyl peptidase 9 (Homo sapiens), sequence (Q86TI2 2-863 limits assumed): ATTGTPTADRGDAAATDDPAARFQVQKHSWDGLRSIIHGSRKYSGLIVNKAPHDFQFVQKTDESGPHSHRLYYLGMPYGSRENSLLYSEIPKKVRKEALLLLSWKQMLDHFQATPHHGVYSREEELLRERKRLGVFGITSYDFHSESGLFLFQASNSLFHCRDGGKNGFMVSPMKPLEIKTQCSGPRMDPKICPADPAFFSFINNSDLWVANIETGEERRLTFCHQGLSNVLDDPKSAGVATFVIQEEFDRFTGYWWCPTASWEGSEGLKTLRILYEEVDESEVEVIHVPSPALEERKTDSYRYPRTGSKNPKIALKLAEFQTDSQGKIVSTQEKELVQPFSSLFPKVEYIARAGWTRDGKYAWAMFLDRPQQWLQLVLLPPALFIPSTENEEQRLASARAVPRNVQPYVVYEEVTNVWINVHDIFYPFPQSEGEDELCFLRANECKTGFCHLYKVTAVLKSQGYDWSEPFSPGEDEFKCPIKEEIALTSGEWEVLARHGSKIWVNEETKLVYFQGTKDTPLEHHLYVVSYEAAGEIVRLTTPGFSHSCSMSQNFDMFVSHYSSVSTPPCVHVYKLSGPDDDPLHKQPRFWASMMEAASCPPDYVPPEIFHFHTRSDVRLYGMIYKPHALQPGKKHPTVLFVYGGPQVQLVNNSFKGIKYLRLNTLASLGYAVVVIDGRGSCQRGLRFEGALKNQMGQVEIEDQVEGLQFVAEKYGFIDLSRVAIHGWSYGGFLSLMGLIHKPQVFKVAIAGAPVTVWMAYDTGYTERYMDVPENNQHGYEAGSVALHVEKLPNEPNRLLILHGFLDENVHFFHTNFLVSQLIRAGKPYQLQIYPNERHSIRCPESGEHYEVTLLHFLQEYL
# Neutrophil collagenase = Neutrophil collagenase (Homo sapiens, UniProt P22894); assay: Inhibition of MMP8 catalytic domain after 10 to 15 mins by fluorescence assay
# [9] = target: Disintegrin and metalloproteinase domain-containing protein 17 (Homo sapiens, UniProt P78536); details: 5.08 to 100000 nM
# Renin (Homo sapiens) = Renin (Homo sapiens) (UniProt P00797); assay: Inhibition of human renin assessed as residual activity at 10 uM after 10 to 15 mins by fluorescence assay relative to control
# Caspase-8 (Homo sapiens) = Caspase-8 (Homo sapiens) (UniProt Q14790); assay: Inhibition of caspase 8 assessed as residual activity at 10 uM after 10 to 15 mins by fluorescence assay relative to control
# [10] = target: Urokinase-type plasminogen activator (Homo sapiens) (UniProt P00749); assay: Inhibition of urokinase assessed as residual activity at 10 uM after 10 to 15 mins by fluorescence assay relative to control
# Stromelysin-1 = Stromelysin-1 (Homo sapiens, UniProt P08254); assay: Inhibition of MMP3 after 10 to 15 mins by fluorescence assay
# Stromelysin-1, sequence (P08254 whole entry): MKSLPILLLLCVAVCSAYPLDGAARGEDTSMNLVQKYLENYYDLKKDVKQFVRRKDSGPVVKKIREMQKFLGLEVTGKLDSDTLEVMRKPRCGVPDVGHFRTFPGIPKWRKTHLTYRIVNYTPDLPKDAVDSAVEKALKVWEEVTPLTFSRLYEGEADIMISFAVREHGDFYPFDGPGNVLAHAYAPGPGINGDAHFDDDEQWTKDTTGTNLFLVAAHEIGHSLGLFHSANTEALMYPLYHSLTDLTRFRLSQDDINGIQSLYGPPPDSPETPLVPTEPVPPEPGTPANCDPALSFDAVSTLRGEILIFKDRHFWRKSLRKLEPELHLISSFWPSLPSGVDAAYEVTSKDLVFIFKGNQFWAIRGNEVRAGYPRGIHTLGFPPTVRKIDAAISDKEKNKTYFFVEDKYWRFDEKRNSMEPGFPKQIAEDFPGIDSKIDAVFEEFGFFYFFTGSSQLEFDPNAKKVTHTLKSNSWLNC
# Caspase-14 = Caspase-14 (Homo sapiens, UniProt P31944); assay: Inhibition of caspase 14 after 10 to 15 mins by fluorescence assay
# [11] = target: Matrix metalloproteinase-9 (Homo sapiens, UniProt P14780); assay: Inhibition of MMP9 catalytic domain after 10 to 15 mins by fluorescence assay
# Matrix metalloproteinase-9, sequence (P14780 whole entry, the tested form may be a part): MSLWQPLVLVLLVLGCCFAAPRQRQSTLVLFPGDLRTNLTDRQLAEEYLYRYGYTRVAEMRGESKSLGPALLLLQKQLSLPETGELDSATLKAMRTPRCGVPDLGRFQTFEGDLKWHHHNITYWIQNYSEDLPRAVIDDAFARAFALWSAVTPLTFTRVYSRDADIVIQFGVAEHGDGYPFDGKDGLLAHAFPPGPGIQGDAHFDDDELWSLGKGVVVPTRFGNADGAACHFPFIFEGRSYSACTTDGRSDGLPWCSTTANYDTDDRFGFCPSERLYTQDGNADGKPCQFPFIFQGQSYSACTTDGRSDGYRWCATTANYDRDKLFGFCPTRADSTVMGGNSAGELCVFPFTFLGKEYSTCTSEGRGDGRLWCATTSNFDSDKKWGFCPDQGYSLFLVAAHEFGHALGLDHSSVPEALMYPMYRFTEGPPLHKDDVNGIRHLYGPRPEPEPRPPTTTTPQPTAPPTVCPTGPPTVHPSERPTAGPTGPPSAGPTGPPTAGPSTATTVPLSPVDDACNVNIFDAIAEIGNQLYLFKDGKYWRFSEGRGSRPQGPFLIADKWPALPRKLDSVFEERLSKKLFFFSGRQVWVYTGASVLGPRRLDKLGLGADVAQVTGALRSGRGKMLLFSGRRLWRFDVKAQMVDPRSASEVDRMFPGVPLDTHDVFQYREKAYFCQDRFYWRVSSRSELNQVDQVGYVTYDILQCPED
# Caspase-6 = Caspase-6 (Homo sapiens, UniProt P55212); assay: Inhibition of caspase 6 after 10 to 15 mins by fluorescence assay
# Caspase-5 (Homo sapiens) = Caspase-5 (Homo sapiens) (UniProt P51878); assay: Inhibition of caspase 5 assessed as residual activity at 10 uM after 10 to 15 mins by fluorescence assay relative to control
# Collagenase 3 [12] = target: T1, Collagenase 3 (Homo sapiens, UniProt P45452); assay: Inhibition of MMP13 catalytic domain after 10 to 15 mins by fluorescence assay
# Renin = Renin (Homo sapiens, UniProt P00797); assay: Inhibition of human renin after 10 to 15 mins by fluorescence assay
# Caspase-7 (Homo sapiens) = Caspase-7 (Homo sapiens) (UniProt P55210); assay: Inhibition of caspase 7 assessed as residual activity at 10 uM after 10 to 15 mins by fluorescence assay relative to control
# Caspase-7 (Homo sapiens), sequence (P55210 24-198 limits assumed): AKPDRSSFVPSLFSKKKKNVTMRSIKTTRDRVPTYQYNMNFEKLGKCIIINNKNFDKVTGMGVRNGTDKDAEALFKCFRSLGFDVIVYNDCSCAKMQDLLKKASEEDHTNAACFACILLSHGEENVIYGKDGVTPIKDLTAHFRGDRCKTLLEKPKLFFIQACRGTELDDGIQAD
# Caspase-7 (Homo sapiens), sequence (P55210 207-303 limits assumed): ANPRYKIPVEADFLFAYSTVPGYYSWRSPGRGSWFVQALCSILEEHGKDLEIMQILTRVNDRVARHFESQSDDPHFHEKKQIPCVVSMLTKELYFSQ
# Caspase-4 (Homo sapiens) = Caspase-4 (Homo sapiens) (UniProt P49662); assay: Inhibition of caspase 4 assessed as residual activity at 10 uM after 10 to 15 mins by fluorescence assay relative to control
# [13] = target: Kallikrein-5 (Homo sapiens) (UniProt Q9Y337); assay: Inhibition of kallikrein 5 assessed as residual activity at 10 uM after 10 to 15 mins by fluorescence assay relative to control
# Collagenase 3 [14] = target: T1, Collagenase 3; assay: Inhibition of MMP13 assessed as residual activity at 10 uM after 10 to 15 mins by fluorescence assay relative to control
# [15] = target: Plasma kallikrein (Homo sapiens) (UniProt P03952); assay: Inhibition of plasma kallikrein assessed as residual activity at 10 uM after 10 to 15 mins by fluorescence assay relative to control; type: cell-free
# Caspase-10 = Caspase-10 (Homo sapiens, UniProt Q92851); assay: Inhibition of caspase 10 after 10 to 15 mins by fluorescence assay
# Caspase-10, sequence (Q92851 220-415 limits assumed): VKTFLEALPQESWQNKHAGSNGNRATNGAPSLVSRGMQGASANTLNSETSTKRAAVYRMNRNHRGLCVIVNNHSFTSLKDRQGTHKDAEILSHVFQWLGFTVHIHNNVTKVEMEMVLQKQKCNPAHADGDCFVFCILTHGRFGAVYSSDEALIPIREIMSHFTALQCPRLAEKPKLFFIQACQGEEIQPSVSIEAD
# Caspase-10, sequence (Q92851 416-521 limits assumed): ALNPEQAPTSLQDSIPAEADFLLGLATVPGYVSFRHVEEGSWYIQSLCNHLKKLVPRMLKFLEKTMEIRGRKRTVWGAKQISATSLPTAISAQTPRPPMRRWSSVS
smiles,measurement,setting,value
COC(=O)[C@@H]1CCCN1C(=O)[C@@H](Cc1ccccc1)N(C)C(=O)[C@H](C)NC(=O)[C@@H](NC(=O)C[C@H](O)[C@H](CC(C)C)NC(=O)[C@H](CC(N)=O)NC(=O)[C@H](CC(C)C)NC(=O)[C@H](OC(=O)[C@@H](OC(=O)[C@H](C(C)C)N(C)C)C(C)C)C(C)C)[C@@H](C)O [GRASSYSTATIN A] (NMe2Val-[Hiv][dHiv]LN[Sta]TA[dNMeF]P-OMe),Activity,[1],86%
same,IC50,Stromelysin-3,5 µM
same,Activity,[2],77%
same,Activity,[3],84%
same,IC50,Interstitial collagenase,5 µM
same,IC50,Caspase-2,5 µM
same,IC50,Caspase-4 [4],5 µM
same,IC50,[5],5 µM
same,Activity,Stromelysin-2,76%
same,IC50,Caspase-4 [6],5 µM
same,Activity,Caspase-2 (Homo sapiens),69%
same,Activity,Caspase-4 (Mus musculus),60%
same,Activity,[7],130%
same,Activity,[8],82%
same,IC50,Neutrophil collagenase,5 µM
same,inhibition,[9],tde
same,Activity,Renin (Homo sapiens),96%
same,Activity,Caspase-8 (Homo sapiens),82%
same,Activity,[10],79%
same,IC50,Stromelysin-1,5 µM
same,IC50,Caspase-14,5 µM
same,IC50,[11],5 µM
same,IC50,Caspase-6,5 µM
same,Activity,Caspase-5 (Homo sapiens),58%
same,IC50,Collagenase 3 [12],5 µM
same,IC50,Renin,50 µM
same,Activity,Caspase-7 (Homo sapiens),62%
same,Activity,Caspase-4 (Homo sapiens),64%
same,Activity,[13],84%
same,Activity,Collagenase 3 [14],75%
same,Activity,[15],78%
same,IC50,Caspase-10,5 µM
